From patent US20260092071A1, “COMPOUNDS AND COMPOSITIONS AS SMARCA2/4 DEGRADERS AND USES THEREOF” (REGENTS OF THE UNIVERSITY OF MICHIGAN, priority 2022, published 2026) come the findings set out here.

One test concerns the target SMARCA4 (Homo sapiens, UniProt P51532). The test is described as follows: HiBit assay in engineered HT1080 CRISPR knock-in cell, 6 hrs (B series), SMARCA4. The test is classed as cell-based. The conditions noted are these: 6 hrs incubation; for DC50: read-out: SMARC A4 HT1080 HiBit DC50; for Dmax: HT-1080, HT1080 CRISPR knock-in cells, read-out: SMARC A4 HT1080 HiBit Dmax(%). The method, boiled down:
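HT1080 CRISPR knock-in cells carrying the HiBiT tag were seeded onto compounds (final DMSO 0.1%) and incubated 6 hrs at 37° C, 5% CO2. Remaining tagged protein was detected by lytic HiBiT luminescence after adding LgBiT protein and substrate, with LgBiT-free wells serving as negative control.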
On the technique in general: HiBiT is a short tag that completes a luciferase, so light tracks the accessible tagged protein.

For the next test, the target named is SMARCA2 (Homo sapiens, UniProt P51531). In words: HiBit assay in engineered HT1080 CRISPR knock-in cell, 6 hrs (B series), SMARCA2. Type of test: cell-based. The conditions noted are these: 6 hrs incubation; for DC50: read-out: SMARC A2 HT1080 HiBit DC50; for Dmax: HT-1080, HT1080 CRISPR knock-in cells, read-out: SMARC A2 HT1080 HiBit Dmax (%). The method, boiled down:
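Protein abundance is measured in HiBiT-tagged HT1080 CRISPR knock-in cells after a 6 hr compound treatment (0.1% DMSO) by lytic Nano-Glo HiBiT luminescence.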

SMARCA4, sequence (P51532 whole entry): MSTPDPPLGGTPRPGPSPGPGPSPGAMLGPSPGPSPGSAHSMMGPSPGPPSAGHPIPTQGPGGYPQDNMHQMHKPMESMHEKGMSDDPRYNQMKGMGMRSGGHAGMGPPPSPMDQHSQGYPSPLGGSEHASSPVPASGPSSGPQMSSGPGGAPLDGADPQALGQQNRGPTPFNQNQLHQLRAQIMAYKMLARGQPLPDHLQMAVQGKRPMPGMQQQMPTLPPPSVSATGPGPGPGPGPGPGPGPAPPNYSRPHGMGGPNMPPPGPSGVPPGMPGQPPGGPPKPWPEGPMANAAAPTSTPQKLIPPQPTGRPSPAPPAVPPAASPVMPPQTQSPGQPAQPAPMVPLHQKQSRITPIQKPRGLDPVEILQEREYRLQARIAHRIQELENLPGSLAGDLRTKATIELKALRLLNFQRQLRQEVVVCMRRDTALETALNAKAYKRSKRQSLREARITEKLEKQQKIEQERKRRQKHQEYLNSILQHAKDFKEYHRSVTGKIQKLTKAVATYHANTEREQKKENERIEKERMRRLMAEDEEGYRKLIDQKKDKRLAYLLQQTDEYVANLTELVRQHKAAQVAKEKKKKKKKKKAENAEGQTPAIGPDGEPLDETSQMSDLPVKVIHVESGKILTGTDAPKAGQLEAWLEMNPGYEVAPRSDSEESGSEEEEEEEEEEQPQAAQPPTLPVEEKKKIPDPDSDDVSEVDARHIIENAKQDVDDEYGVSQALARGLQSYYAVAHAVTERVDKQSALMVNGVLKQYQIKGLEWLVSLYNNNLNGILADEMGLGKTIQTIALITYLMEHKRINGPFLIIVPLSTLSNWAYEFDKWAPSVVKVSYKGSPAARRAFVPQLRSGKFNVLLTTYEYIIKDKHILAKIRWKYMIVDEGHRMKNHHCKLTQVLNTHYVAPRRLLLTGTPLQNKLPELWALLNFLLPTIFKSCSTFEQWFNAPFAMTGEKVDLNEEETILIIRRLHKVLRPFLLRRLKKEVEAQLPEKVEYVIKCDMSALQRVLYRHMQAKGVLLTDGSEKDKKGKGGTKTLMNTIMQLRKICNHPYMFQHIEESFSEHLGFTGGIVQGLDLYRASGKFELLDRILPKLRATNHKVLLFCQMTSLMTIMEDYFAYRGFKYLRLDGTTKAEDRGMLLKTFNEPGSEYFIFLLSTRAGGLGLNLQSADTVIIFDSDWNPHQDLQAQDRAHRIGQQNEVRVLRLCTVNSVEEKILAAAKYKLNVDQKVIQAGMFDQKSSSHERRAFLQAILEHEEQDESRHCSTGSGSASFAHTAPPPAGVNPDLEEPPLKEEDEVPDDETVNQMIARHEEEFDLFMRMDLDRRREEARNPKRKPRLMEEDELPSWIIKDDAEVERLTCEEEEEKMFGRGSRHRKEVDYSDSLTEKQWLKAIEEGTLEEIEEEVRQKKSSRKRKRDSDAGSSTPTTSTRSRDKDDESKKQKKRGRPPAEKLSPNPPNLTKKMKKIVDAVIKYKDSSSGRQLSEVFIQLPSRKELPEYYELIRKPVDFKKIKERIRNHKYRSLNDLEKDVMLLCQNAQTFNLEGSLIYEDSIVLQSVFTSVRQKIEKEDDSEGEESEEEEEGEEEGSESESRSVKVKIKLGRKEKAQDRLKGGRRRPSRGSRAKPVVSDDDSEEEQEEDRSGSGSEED
SMARCA2, sequence (P51531 whole entry): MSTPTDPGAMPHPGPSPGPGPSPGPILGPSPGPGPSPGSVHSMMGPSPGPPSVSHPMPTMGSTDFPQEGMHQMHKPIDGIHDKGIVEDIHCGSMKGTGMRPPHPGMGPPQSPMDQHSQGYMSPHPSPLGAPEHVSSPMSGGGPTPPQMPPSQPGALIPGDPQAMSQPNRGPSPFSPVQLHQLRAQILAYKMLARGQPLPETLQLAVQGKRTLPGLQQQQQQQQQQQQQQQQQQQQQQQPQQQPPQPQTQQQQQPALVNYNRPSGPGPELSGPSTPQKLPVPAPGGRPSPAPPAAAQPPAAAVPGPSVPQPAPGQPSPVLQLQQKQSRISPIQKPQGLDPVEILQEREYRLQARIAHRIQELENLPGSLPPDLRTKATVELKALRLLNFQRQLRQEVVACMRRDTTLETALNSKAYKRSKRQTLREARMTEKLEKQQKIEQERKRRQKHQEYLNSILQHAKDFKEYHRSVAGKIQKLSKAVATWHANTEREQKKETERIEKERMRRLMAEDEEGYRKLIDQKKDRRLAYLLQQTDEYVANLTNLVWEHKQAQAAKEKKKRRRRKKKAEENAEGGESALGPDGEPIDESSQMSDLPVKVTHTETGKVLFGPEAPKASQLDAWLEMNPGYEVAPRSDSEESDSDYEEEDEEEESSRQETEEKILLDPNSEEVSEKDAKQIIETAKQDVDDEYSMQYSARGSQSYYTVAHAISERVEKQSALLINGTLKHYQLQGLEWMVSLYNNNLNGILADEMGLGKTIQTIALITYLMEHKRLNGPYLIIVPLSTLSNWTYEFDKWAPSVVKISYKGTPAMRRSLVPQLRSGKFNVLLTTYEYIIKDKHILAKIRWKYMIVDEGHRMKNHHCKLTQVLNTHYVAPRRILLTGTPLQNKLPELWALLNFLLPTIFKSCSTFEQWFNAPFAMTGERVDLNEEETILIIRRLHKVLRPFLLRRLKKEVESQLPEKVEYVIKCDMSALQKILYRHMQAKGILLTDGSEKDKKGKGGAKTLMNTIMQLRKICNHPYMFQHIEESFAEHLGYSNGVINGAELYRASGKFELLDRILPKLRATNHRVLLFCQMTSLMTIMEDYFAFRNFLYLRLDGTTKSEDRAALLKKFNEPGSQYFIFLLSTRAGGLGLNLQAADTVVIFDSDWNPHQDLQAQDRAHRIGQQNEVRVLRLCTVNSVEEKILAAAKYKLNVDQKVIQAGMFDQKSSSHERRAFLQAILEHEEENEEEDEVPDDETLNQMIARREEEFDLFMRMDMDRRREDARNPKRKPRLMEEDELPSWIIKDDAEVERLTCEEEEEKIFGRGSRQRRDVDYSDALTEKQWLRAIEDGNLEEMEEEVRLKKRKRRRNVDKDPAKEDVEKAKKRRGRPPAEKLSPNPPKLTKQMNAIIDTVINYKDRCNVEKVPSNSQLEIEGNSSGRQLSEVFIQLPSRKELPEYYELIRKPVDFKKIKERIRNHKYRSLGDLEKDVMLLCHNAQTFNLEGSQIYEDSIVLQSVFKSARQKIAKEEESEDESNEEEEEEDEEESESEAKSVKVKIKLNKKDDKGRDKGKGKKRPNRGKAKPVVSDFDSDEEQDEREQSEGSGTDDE

For `Cc1ncsc1-c1ccc([C@H](C)NC(=O)[C@@H]2C[C@@H](O)CN2C(=O)[C@@H](c2cc(OCCCn3cc(-c4ccc5c(c4)-n4c(nc(=O)c6c(Cl)cccc64)C5(C)C)cn3)no2)C(C)C)cc1` [Compound B72, (2S,4R)-1-((R)-2-(3-(3-(4-(4-chloro-7,7-dimethyl-5-oxo-5,7-dihydroindolo[1,2-a]quinazolin-10-yl)-1H-pyrazol-1-yl)propoxy)isoxazol-5-yl)-3-methylbutanoyl)-4-hydroxy-N-((S)-1-(4-(4-methylthiazol-5-yl)phenyl)ethyl)pyrrolidine-2-carboxamide], the DC50 on SMARCA4 (HT1080 CRISPR knock-in cells) and on SMARCA2 (HT1080 CRISPR knock-in cells) was below 100 nM throughout. Moreover, the results for the Dmax on SMARCA4 and on SMARCA2 were below 50% and 50 to 69%, respectively.

For `Cc1ncsc1-c1ccc([C@H](C)NC(=O)[C@@H]2C[C@@H](O)CN2C(=O)[C@H](C(C)C)n2cc(CN3CCC(c4ccc5c(c4)-n4c(nc(=O)c6c(Cl)cccc64)C5(C)C)CC3)nn2)cc1` [Compound B49, (2S,4R)-1-((S)-2-(4-((4-(4-chloro-7,7-dimethyl-5-oxo-5,7-dihydroindolo[1,2-a]quinazolin-10-yl)piperidin-1-yl)methyl)-1H-1,2,3-triazol-1-yl)-3-methylbutanoyl)-4-hydroxy-N-((S)-1-(4-(4-methylthiazol-5-yl)phenyl)ethyl)pyrrolidine-2-carboxamide], the DC50 at SMARCA4 (HT1080 CRISPR knock-in cells) is above 1000 nM; on SMARCA2 (HT1080 CRISPR knock-in cells) it was below 100 nM. Also, the Dmax at SMARCA4 was below 50%; on SMARCA2, 70 to 90%.

As to `Cc1ncsc1-c1ccc([C@H](C)NC(=O)[C@@H]2C[C@@H](O)CN2C(=O)[C@@H](NC(=O)CN2CCC(c3ccc4c(c3)C(C)(C)c3nc(=O)c5c(Cl)cccc5n3-4)CC2)C(C)(C)C)cc1` [Compound B6, (2S,4R)-1-((S)-2-(2-(4-(4-chloro-7,7-dimethyl-5-oxo-5,7-dihydroindolo[1,2-a]quinazolin-9-yl)piperidin-1-yl)acetamido)-3,3-dimethylbutanoyl)-4-hydroxy-N—((S)-1-(4-(4-methylthiazol-5-yl)phenyl)ethyl)pyrrolidine-2-carboxamide], the DC50 at SMARCA4 (HT1080 CRISPR knock-in cells) and at SMARCA2 (HT1080 CRISPR knock-in cells) was below 100 nM in each case. The Dmax at SMARCA4 and on SMARCA2 was above 90% in each case.

For `Cc1ncsc1-c1ccc([C@H](C)NC(=O)[C@@H]2C[C@@H](O)CN2C(=O)[C@H](C(C)C)n2cc(C3CCC(c4cccc5c4C(C)(C)c4nc(=O)c6c(Cl)cccc6n4-5)CC3)nn2)cc1` (stereo partly drawn) [Compound B137, (2S,4R)-1-((S)-2-(4-(4-(4-chloro-7,7-dimethyl-5-oxo-5,7-dihydroindolo[1,2-a]quinazolin-8-yl)cyclohexyl)-1H-1,2,3-triazol-1-yl)-3-methylbutanoyl)-4-hydroxy-N-((S)-1-(4-(4-methylthiazol-5-yl)phenyl)ethyl)pyrrolidine-2-carboxamide], the DC50 at SMARCA4 (HT1080 CRISPR knock-in cells) and at SMARCA2 (HT1080 CRISPR knock-in cells) was below 100 nM in each case. The Dmax at SMARCA4 was below 50%; at SMARCA2 it was above 90%.

As to `Cc1ncsc1-c1ccc2c(c1)CCC[C@H]2NC(=O)[C@@H]1C[C@@H](O)CN1C(=O)[C@@H](n1cc([C@H]2CC[C@H](CN3CCC(c4ccc5c(c4)-n4c(nc(=O)c6c(Cl)cccc64)C5(C)C)CC3)CC2)nn1)C(C)(C)C` [Compound B151, (2S,4R)-1-((S)-2-(4-((1r,4S)-4-((4-(4-chloro-7,7-dimethyl-5-oxo-5,7-dihydroindolo[1,2-a]quinazolin-10-yl)piperidin-1-yl)methyl)cyclohexyl)-1H-1,2,3-triazol-1-yl)-3,3-dimethylbutanoyl)-4-hydroxy-N-((R)-6-(4-methylthiazol-5-yl)-1,2,3,4-tetrahydronaphthalen-1-yl)pyrrolidine-2-carboxamide], the DC50 is 100 to 500 nM on SMARCA4 (HT1080 CRISPR knock-in cells) and below 100 nM on SMARCA2 (HT1080 CRISPR knock-in cells). The Dmax on SMARCA4 was 50 to 69%; on SMARCA2, above 90%.

On to `Cc1ncsc1-c1ccc([C@H](C)NC(=O)[C@@H]2C[C@@H](O)CN2C(=O)C(c2cc(N3CCC(c4ccc5c(c4)C(C)(C)c4nc(=O)c6c(Cl)cccc6n4-5)CC3)no2)C(C)C)cc1` (stereo partly drawn) [Compound B42, (2S,4R)-1-(2-(3-(4-(4-chloro-7,7-dimethyl-5-oxo-5,7-dihydroindolo[1,2-a]quinazolin-9-yl)piperidin-1-yl)isoxazol-5-yl)-3-methylbutanoyl)-4-hydroxy-N—((S)-1-(4-(4-methylthiazol-5-yl)phenyl)ethyl)pyrrolidine-2-carboxamide], for which the DC50 on SMARCA4 (HT1080 CRISPR knock-in cells) and on SMARCA2 (HT1080 CRISPR knock-in cells) was below 100 nM throughout. Besides, the Dmax is 70 to 90% on SMARCA4 and above 90% on SMARCA2.

In the case of `Cc1ncsc1-c1ccc([C@H](C)NC(=O)[C@@H]2C[C@@H](O)CN2C(=O)[C@@H](NC(=O)CCn2cc(-c3ccc4c(c3)-n3c(nc(=O)c5c(Cl)cccc53)C4(C)C)cn2)C(C)(C)C)cc1` [Compound B92, (2S,4R)-1-((S)-2-(3-(4-(4-chloro-7,7-dimethyl-5-oxo-5,7-dihydroindolo[1,2-a]quinazolin-10-yl)-1H-pyrazol-1-yl)propanamido)-3,3-dimethylbutanoyl)-4-hydroxy-N-((S)-1-(4-(4-methylthiazol-5-yl)phenyl)ethyl)pyrrolidine-2-carboxamide], the DC50 on SMARCA4 (HT1080 CRISPR knock-in cells) and at SMARCA2 (HT1080 CRISPR knock-in cells) was above 1000 nM each time. Also, the Dmax at SMARCA4 and on SMARCA2 was below 50% in each case.

Turning to `Cc1ncsc1-c1ccc([C@H](C)NC(=O)[C@@H]2C[C@@H](O)CN2C(=O)[C@@H](c2cc(N3CCC(CN4CCC(c5cccc6c5C(C)(C)c5nc(=O)c7c(Cl)cccc7n5-6)CC4)CC3)no2)C(C)C)cc1` [Compound B10, (2S,4R)-1-((R)-2-(3-(4-((4-(4-chloro-7,7-dimethyl-5-oxo-5,7-dihydroindolo[1,2-a]quinazolin-8-yl)piperidin-1-yl)methyl)piperidin-1-yl)isoxazol-5-yl)-3-methylbutanoyl)-4-hydroxy-N—((S)-1-(4-(4-methylthiazol-5-yl)phenyl)ethyl)pyrrolidine-2-carboxamide], the DC50 at SMARCA4 (HT1080 CRISPR knock-in cells) and on SMARCA2 (HT1080 CRISPR knock-in cells) was below 100 nM in each case. Further, the Dmax at SMARCA4 was 70 to 90%; at SMARCA2, above 90%.

For `Cc1ncsc1-c1ccc([C@H](C)NC(=O)[C@@H]2C[C@@H](O)CN2C(=O)[C@H](C(C)C)n2cc(C3CCC(c4cccc5c4C(C)(C)c4nc(=O)c6c(Cl)cccc6n4-5)CC3)nn2)cc1` (stereo partly drawn) [Compound B162, (2S,4R)-1-((S)-2-(4-(4-(4-chloro-7,7-dimethyl-5-oxo-5,7-dihydroindolo[1,2-a]quinazolin-8-yl)cyclohexyl)-1H-1,2,3-triazol-1-yl)-3-methylbutanoyl)-4-hydroxy-N-((S)-1-(4-(4-methylthiazol-5-yl)phenyl)ethyl)pyrrolidine-2-carboxamide], at SMARCA4 (HT1080 CRISPR knock-in cells), the “SMARC A4 HT1080 HiBit Dmax(%)” value is listed as “C (C (50-69% degradation))” and the DC50 was below 100 nM. At SMARCA2 (HT1080 CRISPR knock-in cells), the “SMARC A2 HT1080 HiBit Dmax (%)” value is “A (A (>90% degradation))” and the DC50 was below 100 nM.

As for `Cc1ncsc1-c1ccc([C@H](CN2CCOCC2)NC(=O)[C@@H]2C[C@@H](O)CN2C(=O)[C@@H](c2cc(O[C@H]3CC[C@H](CN4CCN(c5ccc6c(c5)-n5c(nc(=O)c7c(Cl)cccc75)C65CCCCC5)CC4)CC3)no2)C(C)C)cc1` [Compound B138, (2S,4R)-1-((R)-2-(3-(((1r,4R)-4-((4-(4′-chloro-5′-oxo-5′H-spiro[cyclohexane-1,7′-indolo[1,2-a]quinazolin]-10′-yl)piperazin-1-yl)methyl)cyclohexyl)oxy)isoxazol-5-yl)-3-methylbutanoyl)-4-hydroxy-N-((R)-1-(4-(4-methylthiazol-5-yl)phenyl)-2-morpholinoethyl)pyrrolidine-2-carboxamide], the DC50 at SMARCA4 (HT1080 CRISPR knock-in cells) and on SMARCA2 (HT1080 CRISPR knock-in cells) was below 100 nM each time. Also, the Dmax on SMARCA4 and on SMARCA2 was above 90% each time.

For `Cc1ncsc1-c1ccc([C@H](C)NC(=O)[C@@H]2C[C@@H](O)CN2C(=O)[C@@H](NC(=O)CC2CCC(N3CCC(c4ccc5c(c4)-n4c(nc(=O)c6c(Cl)cccc64)C5(C)C)CC3)CC2)C(C)(C)C)cc1` (stereo partly drawn) [Compound B63, (2S,4R)-1-((S)-2-(2-(4-(4-(4-chloro-7,7-dimethyl-5-oxo-5,7-dihydroindolo[1,2-a]quinazolin-10-yl)piperidin-1-yl)cyclohexyl)acetamido)-3,3-dimethylbutanoyl)-4-hydroxy-N-((S)-1-(4-(4-methylthiazol-5-yl)phenyl)ethyl)pyrrolidine-2-carboxamide], the DC50 is 100 to 500 nM on SMARCA4 (HT1080 CRISPR knock-in cells) and below 100 nM at SMARCA2 (HT1080 CRISPR knock-in cells). Also, the Dmax at SMARCA4 was below 50%; at SMARCA2, above 90%.

Turning to `Cc1ncsc1-c1ccc([C@H](C)NC(=O)[C@@H]2C[C@@H](O)CN2C(=O)[C@@H](NC(=O)c2cccc(CN3CCC(c4ccc5c(c4)C(C)(C)c4nc(=O)c6c(Cl)cccc6n4-5)CC3)c2)C(C)(C)C)cc1` [Compound B16, (2S,4R)-1-((S)-2-(3-((4-(4-chloro-7,7-dimethyl-5-oxo-5,7-dihydroindolo[1,2-a]quinazolin-9-yl)piperidin-1-yl)methyl)benzamido)-3,3-dimethylbutanoyl)-4-hydroxy-N—((S)-1-(4-(4-methylthiazol-5-yl)phenyl)ethyl)pyrrolidine-2-carboxamide], the DC50 at SMARCA4 (HT1080 CRISPR knock-in cells) and at SMARCA2 (HT1080 CRISPR knock-in cells) was below 100 nM each time. Further, the Dmax at SMARCA4 is 70 to 90%; at SMARCA2, above 90%.
